Results from PMC5529018, “Discovery of novel brain permeable and G protein-biased beta-1 adrenergic receptor partial agonists for the treatment of neurocognitive disorders” (PLoS ONE, 2017).

Columns and labels:
[1] = Microsomal stability assay, mouse; assay type: in vitro ADME; details: 0.1 uM
[2] = Cardiovascular studies (heart rate, blood pressure); assay type: in vivo, Sprague-Dawley rats; details: anesthetized rats, 3 mg/kg subcutaneous
Description: A polyethylene catheter (PE50) filled with heparinized saline was then inserted into the tail artery and connected to the blood pressure transducer system. After ensuring the absence of any air bubbles, 5–10 min of baseline systolic and diastolic blood pressure along with heart rate measurements were recorded using LabChart Pro (AD Instruments, CO).

ADRB3 = ADRB3 (Homo sapiens, UniProt P13945); assay: Radioligand binding ADRB3; details: S2 Table; hot ligand [3H]CGP12177; read-out: Binding Affinity Ki
ADRB3, sequence (P13945 whole entry): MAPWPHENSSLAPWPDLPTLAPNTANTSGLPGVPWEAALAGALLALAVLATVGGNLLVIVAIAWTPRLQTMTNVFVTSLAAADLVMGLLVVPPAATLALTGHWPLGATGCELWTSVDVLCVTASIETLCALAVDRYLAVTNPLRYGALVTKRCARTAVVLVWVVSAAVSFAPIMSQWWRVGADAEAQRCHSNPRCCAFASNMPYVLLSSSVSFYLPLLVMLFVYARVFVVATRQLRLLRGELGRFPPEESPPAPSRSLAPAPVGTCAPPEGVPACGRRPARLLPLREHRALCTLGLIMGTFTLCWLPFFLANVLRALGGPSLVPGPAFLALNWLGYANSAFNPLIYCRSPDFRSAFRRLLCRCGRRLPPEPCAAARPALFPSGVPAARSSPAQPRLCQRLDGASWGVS

ADR- Alpha 1A = ADR- Alpha 1A (Homo sapiens, UniProt P35348); assay: Radioligand binding ADR Alpha 1A; details: S2 Table; hot ligand [3H] Prazosin; read-out: Binding Affinity Ki
ADR- Alpha 1A, sequence (P35348 whole entry): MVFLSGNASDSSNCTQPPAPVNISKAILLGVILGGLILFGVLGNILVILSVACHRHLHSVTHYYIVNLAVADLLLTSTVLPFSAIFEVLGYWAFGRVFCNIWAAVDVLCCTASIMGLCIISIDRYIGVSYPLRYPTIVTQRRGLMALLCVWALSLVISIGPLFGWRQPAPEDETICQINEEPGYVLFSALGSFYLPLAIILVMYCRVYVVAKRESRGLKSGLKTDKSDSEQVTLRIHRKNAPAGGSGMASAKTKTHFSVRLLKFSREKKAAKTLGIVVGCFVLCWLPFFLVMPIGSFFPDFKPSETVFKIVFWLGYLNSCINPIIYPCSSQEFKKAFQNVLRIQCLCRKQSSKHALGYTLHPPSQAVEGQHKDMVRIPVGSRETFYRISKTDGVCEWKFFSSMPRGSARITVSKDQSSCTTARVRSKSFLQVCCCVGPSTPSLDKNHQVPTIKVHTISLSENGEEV

ADR - Alpha 1D = ADR - Alpha 1D (Homo sapiens, UniProt P25100); assay: Radioligand binding ADR Alpha 1D; details: S2 Table; hot ligand [3H] Prazosin; read-out: Binding Affinity Ki
ADR - Alpha 1D, sequence (P25100 whole entry): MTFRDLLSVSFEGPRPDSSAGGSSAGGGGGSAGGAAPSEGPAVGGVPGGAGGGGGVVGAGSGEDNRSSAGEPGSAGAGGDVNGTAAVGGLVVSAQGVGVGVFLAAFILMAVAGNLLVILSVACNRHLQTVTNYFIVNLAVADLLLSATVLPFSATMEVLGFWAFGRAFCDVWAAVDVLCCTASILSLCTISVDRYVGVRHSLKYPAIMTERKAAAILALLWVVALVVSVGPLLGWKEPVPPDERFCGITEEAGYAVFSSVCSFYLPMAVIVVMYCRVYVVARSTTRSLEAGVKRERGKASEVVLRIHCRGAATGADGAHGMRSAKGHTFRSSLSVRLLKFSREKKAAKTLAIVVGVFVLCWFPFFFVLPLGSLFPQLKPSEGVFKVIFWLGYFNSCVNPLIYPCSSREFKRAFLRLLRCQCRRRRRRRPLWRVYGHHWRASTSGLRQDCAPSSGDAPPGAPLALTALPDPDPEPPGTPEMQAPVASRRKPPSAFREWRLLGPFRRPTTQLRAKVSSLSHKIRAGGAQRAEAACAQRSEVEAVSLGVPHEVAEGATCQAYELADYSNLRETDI

ADR - Alpha 2A = ADR - Alpha 2A (Homo sapiens, UniProt P08913); assay: Radioligand binding ADR Alpha 2A; details: S2 Table; hot ligand [3H] Rauwolscine; read-out: Binding Affinity Ki
ADR - Alpha 2A, sequence (P08913 whole entry): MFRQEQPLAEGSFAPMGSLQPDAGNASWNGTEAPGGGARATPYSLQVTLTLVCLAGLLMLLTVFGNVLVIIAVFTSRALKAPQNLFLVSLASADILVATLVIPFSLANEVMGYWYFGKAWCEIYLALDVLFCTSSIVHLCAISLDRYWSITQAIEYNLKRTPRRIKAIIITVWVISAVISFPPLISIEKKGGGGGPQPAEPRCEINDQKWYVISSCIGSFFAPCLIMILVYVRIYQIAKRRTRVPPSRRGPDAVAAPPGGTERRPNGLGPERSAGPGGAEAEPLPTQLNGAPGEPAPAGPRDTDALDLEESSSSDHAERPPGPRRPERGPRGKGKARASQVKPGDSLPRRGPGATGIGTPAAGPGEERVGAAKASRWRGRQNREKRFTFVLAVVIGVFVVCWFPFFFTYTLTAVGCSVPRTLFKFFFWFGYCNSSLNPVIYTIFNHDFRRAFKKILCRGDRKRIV

ADR - Alpha 2B = ADR - Alpha 2B (Homo sapiens, UniProt P18089); assay: Radioligand binding ADR Alpha 2B; details: S2 Table; hot ligand [3H] Rauwolscine; read-out: Binding Affinity Ki
ADR - Alpha 2B, sequence (P18089 whole entry): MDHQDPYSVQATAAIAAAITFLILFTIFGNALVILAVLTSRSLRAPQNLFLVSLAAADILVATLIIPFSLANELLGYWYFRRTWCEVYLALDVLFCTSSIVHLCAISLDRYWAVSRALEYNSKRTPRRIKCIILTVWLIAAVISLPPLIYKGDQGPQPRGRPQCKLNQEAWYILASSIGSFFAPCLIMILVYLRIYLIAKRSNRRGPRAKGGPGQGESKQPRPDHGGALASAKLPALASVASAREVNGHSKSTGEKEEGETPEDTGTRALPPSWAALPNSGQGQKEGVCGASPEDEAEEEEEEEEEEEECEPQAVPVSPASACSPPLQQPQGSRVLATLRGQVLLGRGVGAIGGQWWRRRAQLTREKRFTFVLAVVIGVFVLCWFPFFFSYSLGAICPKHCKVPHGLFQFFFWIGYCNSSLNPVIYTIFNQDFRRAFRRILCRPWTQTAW

ADR - Alpha 2C = ADR - Alpha 2C (Homo sapiens, UniProt P18825); assay: Radioligand binding ADR Alpha 2C; details: S2 Table; hot ligand [3H] Rauwolscine; read-out: Binding Affinity Ki
ADR - Alpha 2C, sequence (P18825 whole entry): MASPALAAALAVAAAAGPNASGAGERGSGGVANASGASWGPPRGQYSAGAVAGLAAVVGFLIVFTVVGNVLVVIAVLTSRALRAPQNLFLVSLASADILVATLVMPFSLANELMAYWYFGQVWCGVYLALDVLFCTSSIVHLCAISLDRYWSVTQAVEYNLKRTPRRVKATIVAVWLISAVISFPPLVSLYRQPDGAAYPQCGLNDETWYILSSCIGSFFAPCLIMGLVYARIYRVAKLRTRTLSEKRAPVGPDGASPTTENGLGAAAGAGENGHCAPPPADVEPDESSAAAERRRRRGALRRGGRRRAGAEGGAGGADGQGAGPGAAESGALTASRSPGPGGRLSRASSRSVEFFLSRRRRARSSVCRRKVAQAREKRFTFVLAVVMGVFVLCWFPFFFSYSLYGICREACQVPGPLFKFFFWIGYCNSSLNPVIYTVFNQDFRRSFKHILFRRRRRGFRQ

5-HT1B = 5-HT1B (Homo sapiens, UniProt P28222); assay: Radioligand binding 5-HT1B; details: S2 Table; hot ligand [3H]GR125743; read-out: Binding Affinity Ki
5-HT1B, sequence (P28222 whole entry, species assumed): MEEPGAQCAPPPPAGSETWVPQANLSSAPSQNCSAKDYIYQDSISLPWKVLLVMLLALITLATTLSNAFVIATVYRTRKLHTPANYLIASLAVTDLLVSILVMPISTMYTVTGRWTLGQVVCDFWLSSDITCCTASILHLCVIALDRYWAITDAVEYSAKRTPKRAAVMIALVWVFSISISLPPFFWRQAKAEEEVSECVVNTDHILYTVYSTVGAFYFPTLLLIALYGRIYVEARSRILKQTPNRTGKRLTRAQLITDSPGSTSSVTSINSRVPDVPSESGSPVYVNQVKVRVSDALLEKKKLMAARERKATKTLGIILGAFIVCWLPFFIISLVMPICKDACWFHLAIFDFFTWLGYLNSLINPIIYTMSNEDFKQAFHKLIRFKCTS

5-HT 1D = 5-HT 1D (Homo sapiens, UniProt P28221); assay: Radioligand binding 5-HT 1D; details: S2 Table; hot ligand [3H]GR125743; read-out: Binding Affinity Ki
5-HT 2A = 5-HT 2A (Homo sapiens, UniProt P28223); assay: Radioligand binding 5-HT 2A; details: S2 Table; hot ligand [3H]Ketanserin; read-out: Binding Affinity Ki
5-HT 2A, sequence (P28223 whole entry, species assumed): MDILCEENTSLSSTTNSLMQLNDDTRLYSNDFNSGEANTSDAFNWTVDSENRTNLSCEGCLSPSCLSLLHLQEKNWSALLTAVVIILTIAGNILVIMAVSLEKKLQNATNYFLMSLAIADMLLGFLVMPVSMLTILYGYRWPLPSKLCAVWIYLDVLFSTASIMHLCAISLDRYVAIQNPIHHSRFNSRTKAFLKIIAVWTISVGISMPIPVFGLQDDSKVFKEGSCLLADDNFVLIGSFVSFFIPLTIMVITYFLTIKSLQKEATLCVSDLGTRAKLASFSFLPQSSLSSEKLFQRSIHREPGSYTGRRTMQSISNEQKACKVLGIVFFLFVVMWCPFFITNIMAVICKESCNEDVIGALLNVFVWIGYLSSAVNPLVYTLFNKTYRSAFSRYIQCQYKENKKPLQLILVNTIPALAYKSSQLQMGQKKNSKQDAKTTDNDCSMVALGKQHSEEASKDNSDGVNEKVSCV

5-HT 2C = 5-HT 2C (Homo sapiens, UniProt P28335); assay: Radioligand binding 5-HT 2C; details: S2 Table; hot ligand [3H]Mesulergine; read-out: Binding Affinity Ki
5-HT 2C, sequence (P28335 33-458, species assumed): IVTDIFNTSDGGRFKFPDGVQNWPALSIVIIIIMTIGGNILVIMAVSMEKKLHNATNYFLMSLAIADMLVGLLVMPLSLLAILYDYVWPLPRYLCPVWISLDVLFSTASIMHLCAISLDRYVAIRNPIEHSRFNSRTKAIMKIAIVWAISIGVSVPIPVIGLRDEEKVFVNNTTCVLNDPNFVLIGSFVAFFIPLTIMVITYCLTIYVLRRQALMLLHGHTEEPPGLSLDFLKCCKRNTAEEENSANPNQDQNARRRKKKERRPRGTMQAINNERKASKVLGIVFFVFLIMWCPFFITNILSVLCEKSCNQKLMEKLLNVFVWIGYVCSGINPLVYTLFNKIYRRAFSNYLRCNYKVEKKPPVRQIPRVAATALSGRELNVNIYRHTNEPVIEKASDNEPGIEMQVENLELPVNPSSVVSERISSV

5-HT6 = 5-HT6 (Homo sapiens, UniProt P50406); assay: Radioligand binding 5-HT6; details: S2 Table; hot ligand [3H]LSD; read-out: Binding Affinity Ki
[3] = test system: PBR (peripheral benzodiazepine receptor); assay: Radioligand binding PBR; details: S2 Table; hot ligand [3H]PK11195
D3 dopamine receptor = D3 dopamine receptor (Homo sapiens, UniProt P35462); assay: Radioligand binding D3; details: S2 Table; hot ligand [3H]N-Methylspiperone; read-out: Binding Affinity Ki
D3 dopamine receptor, sequence (P35462 whole entry): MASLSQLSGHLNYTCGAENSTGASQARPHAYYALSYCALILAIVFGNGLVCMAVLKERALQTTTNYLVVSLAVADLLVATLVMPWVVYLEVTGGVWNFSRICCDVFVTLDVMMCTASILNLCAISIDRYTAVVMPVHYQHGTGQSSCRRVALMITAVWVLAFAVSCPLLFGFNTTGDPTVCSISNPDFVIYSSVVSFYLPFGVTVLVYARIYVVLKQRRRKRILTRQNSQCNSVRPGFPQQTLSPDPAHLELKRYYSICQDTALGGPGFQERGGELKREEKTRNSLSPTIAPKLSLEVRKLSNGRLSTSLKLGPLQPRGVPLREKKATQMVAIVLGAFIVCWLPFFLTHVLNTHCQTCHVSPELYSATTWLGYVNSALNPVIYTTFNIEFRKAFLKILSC

Sigma 1 receptor = Sigma 1 receptor (Homo sapiens, UniProt Q99720); assay: Radioligand binding Sigma 1 receptor; details: S2 Table; hot ligand [3H]Pentazocine(+); read-out: Binding Affinity Ki
Sigma 1 receptor, sequence (Q99720 whole entry, species assumed): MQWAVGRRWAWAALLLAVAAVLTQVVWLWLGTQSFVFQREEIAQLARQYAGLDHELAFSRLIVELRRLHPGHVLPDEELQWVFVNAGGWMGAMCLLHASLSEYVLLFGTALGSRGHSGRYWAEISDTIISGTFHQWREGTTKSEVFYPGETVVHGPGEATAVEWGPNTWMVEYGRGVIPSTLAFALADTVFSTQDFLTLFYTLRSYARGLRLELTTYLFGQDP

Sigma 2 receptor = Sigma 2 receptor (Homo sapiens, UniProt Q5BJF2); assay: Radioligand binding Sigma 2 receptor; details: S2 Table; hot ligand [3H]DTG; read-out: Binding Affinity Ki
Sigma 2 receptor, sequence (Q5BJF2 whole entry, species assumed): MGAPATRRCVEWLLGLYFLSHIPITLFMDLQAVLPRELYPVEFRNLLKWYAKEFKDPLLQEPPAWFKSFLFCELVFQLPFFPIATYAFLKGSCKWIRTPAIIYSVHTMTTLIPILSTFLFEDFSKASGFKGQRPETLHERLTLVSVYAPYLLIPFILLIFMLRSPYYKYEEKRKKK

[4] = Brain uptake in the in vivo LPS study; parameters: species or system C57Bl/6J mice; details: C57Bl/6J, mouse, ip, mice, 3 mg/kg intraperitoneal, 105 min post-dose, read-out: concentration in brain homogenates
Description: ; subcutaneous; […]; intraperitoneal; n = 4) or vehicle (5% DMSO/20%PEG400/water; intraperitoneal; n = 12) 15 min prior to LPS (50 ug/kg; intraperitoneal). A control group was injected with vehicle 15 minutes prior to saline (n = 18). Following injections, mice were single-housed. At 90 min post-LPS/saline, mice were deeply anesthetized with isoflurane and blood was collected from the right ventricle via cardiac puncture (23 g needle) into lithium heparin-containing vials (BD microtainer plasma tubes). Subsequently, brains were collected after perfusion with phosphate-buffered saline. Plasma was separated by centrifugation (11,000 rpm for 3 minutes) within 60 min of collection and stored at -80°C until analysis. The concentration of TNFα in the collected plasma was measured by ELISA (Invitrogen, KMC3012) according to the manufacturer’s instruction. The LPS-induced inflammatory response in the CNS was assessed by measuring mRNA expression for genes related to neuroimmune activation in brain tissue according to the previously reported method. […] Fold changes of expression relative to control were determined after normalization to GAPDH. Relative quantification and fold change were calculated by the comparative CT method. Brain uptake of STD-101-D1 was determined in brain tissue. […]

Structure (SMILES): COc1ccccc1OCCNC[C@H](O)COc1ccc(O)cc1.COc1ccccc1OCCNC[C@H](O)COc1ccc(O)cc1.O=C(O)/C=C/C(=O)O [STD-101-D1, (S)-4-(2-hydroxy-3-((2-(2-methoxyphenoxy)ethyl)amino)propoxy)phenol hemifumarate]
- compound remaining after 60 min, mouse liver microsomes [1]: 62.8%
- decrease in blood pressure [2]: 46%
- increase in heart rate [2]: 13%
- Ki (ADRB3): 485 nM
- Ki (ADR- Alpha 1A): 17 nM
- Ki (ADR - Alpha 1D): 25 nM
- Ki (ADR - Alpha 2A): 1170 nM
- Ki (ADR - Alpha 2B): 337 nM
- Ki (ADR - Alpha 2C): 108 nM
- Ki (5-HT1B): 382 nM
- Ki (5-HT 1D): 149 nM
- Ki (5-HT 2A): 1240 nM
- Ki (5-HT 2C): 1150 nM
- Ki (5-HT6): 1770 nM
- Binding Affinity Ki [3]: - (< 50% inhibition of radioligand binding at 10 μM STD-101-D1)
- Ki (D3 dopamine receptor): 47 nM
- Ki (Sigma 1 receptor): 146 nM
- Ki (Sigma 2 receptor): 236 nM
- concentration at 105 min [4]: 130 ± 28.2 ng/g
